The text below walks through data of US20160136197A1, “Pharmaceutical Compositions Comprising a GPG Oligodeoxynucleotide and Cyclic Di-GMP” (INTERVET INTERNATIONAL B.V., priority 2013, published 2016).

The test system of data set [1] is Mouse bone marrow dendritic cells. Description: IL12 production by bone marrow dendritic cells, ELISA. Particulars: overnight incubation of 1.2×10^5 DCs; CpG 1 μg/ml, c-GMP 10 μg/ml, c-di-GMP 10 μg/ml. The format is cell-based. As for the experimental part: (§1) Mouse bone marrow dendritic cells were cultured with granulocyte-macrophage colony-stimulating factor (GM-CSF) and harvested at day 7 of culture. 1.2×10^5 cells were exposed during overnight incubation to the following immunopotentiators: CpG 1668 1 μg/ml, c-GMP 10 μg/ml, c-di-GMP 10 μg/ml. Next, supernatant was carefully harvested and IL12 or type-I IFN production was determined. For IL12 an ELISA method was used according to the manufacturer's instructions (BD Biosciences). Type-I IFN was determined by a standard bioassay using L929 ISRE reporter cells.
(§2) Kaplan Meier survival curves were analyzed using a log rank test. Cytokine data was analyzed using ANOVA with a post-hoc Bonferroni test.
FIG. 3. Synergistic IL12 production by DCs upon combined treatment with c-di-GMP and CpG. Mouse bone marrow dendritic cells were cultured with GM-CSF and harvested at day 7 of culture. 1.2×10^5 cells were exposed during overnight incubation to the indicated immunopotentiators: CpG 1 μg/ml, c-GMP 10 μg/ml, c-di-GMP 10 μg/ml. Next, supernatant was harvested and IL12 production was determined by standard ELISA methods. Results are shown as means with sem, *=p<0.001. Similar results were obtained in three independent experiments.

Data set [2] deals with B16F10 melanoma cells. As to the kind of experiment: Cryo ablation of established B16F10 tumors plus peri-tumoral immunopotentiator, re-challenge after 40 days, Kaplan-Meier survival. In kind it is in vivo, C57BL/6n mice. The conditions noted are these: cryo ablation combined with immunopotentiator; for survival rate after 60 days: 30 μg p.t. within 30 min. after ablation, re-challenge with 15*10^3 B16F10 cells s.c. 40 days after ablation; for protection from tumor outgrowth (re-challenge, Kaplan-Meier): re-challenge 40 days later, result in words. As for the experimental part: C57BL/6n mice (6-8 weeks old) were purchased from Charles River Wiga (Sulzfeld, Germany) and maintained under specific pathogen-free barrier conditions at the Central Animal Laboratory (Nijmegen, The Netherlands). Drinking water and standard laboratory food pellets were provided ad libitum and mice were allowed to settle for at least 1 week before random assignment into specific treatment groups. The experiments were performed according to the guidelines for animal care of the Nijmegen Animal Experiments Committee.
The murine melanoma cell line B16F10 (ATCC) was cultured in complete medium (MEM, 5% fetal bovine serum (Greiner Bio-one), 100 U/ml penicillin G sodium and 100 μg/ml streptomycin (Pen/Strep), MEM sodium pyruvate (1 mM), NaHCO3, MEM vitamins, MEM non-essential amino acids (all from Gibco), 20 μM β-mercaptoethanol (β-ME)).
B16F10 melanoma cells were suspended in a mixture of PBS and Matrigel (2:1), and 0.5*10^6 cells in a total volume of 50 μl were injected s.c. at the right femur. When tumor diameters measured between 6-8 mm (generally at day 9-10) they were randomly assigned to treatment groups. Cryo ablation (Cryo) was performed under isoflurane/O2/N2O anesthesia using a liquid nitrogen cryo ablation system (CS76, Frigitronics, Shelton, Conn.) of which the tip is cooled by a continuous flow of circulating liquid nitrogen. During 2 treatment cycles of freezing and thawing the tumor was macroscopically frozen, while leaving surrounding healthy tissue intact. To monitor the induction of long-lasting tumor protection, mice were re-challenged with 15*10^3 B16F10 cells 40 days after cryo ablation. Re-challenges were injected in 100 μl PBS s.c. on the right flank. Mice were sacrificed when tumor volume exceeded 1000 mm^3 or when tumors brake through the skin barrier.
CpG 1668 (‘5-[…]-3’) with total phosphorothioate-modified backbone was purchased from Sigma Genosys (Haverhill, UK). C-di-GMP was synthesized as described by Spehr V, Warrass R, Höcherl K, Ilg T., in Appl. Biochem. Biotechnol. 2011 Oct;165(3-4):761-75. CpG and/or C-di-GMP were peri-tumorally injected in PBS (p.t., 30 μg divided over 2 injections of 20 μl lining the ablated tumor). All injections were done within 30 min. after ablation.
as §2
FIG. 1. Anti-tumor memory response following ablation combined with C-di-GMP and CpG. Established B16F10 tumors growing subcutaneously on the right femur were treated with cryo ablation alone, or combined with the indicated immunopotentiators Immunopotentiators ([…]) were injected in 40 μl PBS in the peri-tumoral area following the ablation. […]

For data set [3], the system named is Mouse bone marrow dendritic cells. Description: Type-I IFN production by bone marrow dendritic cells, bioassay using L929 ISRE reporter cells. In kind it is cell-based. Particulars: overnight incubation of 1.2×10^5 DCs; CpG 1 μg/ml, c-GMP 10 μg/ml, c-di-GMP 10 μg/ml. How it is done:
as §1, §2
FIG. 2. Synergistic type I IFN production by DCs upon combined treatment with c-di-GMP and CpG. Mouse bone marrow dendritic cells were cultured with GM-CSF and harvested at day 7 of culture. 1.2×10^5 cells were exposed during overnight incubation to the indicated immmunopotentiators or combinations of immunopotentiators: CpG 1 μg/ml, c-GMP 10 μg/ml, c-di-GMP 10 μg/ml. Next, supernatant was harvested and type I IFN production was determined by a standard bioassay using L929 ISRE cells. Results are shown as means with sem, *=p<0.001 vs. all other bars. Similar results were obtained in three independent experiments.

Data set [4] concerns human colon cancer cell. Particulars: in vitro; cited from earlier work.

With “5-TCCATGACGTTCCTGATGCT-3 (DNA, all phosphorothioate, methylation of C not given here) [CpG 1668, CpG ODN 20-mer, TLR9 agonist, purchased from Sigma Genosys]”, the “IL12 production (in words)” value in data set [1] is on record as “modest level of IL12 production”. For the same compound, in data set [2], the “survival rate after 60 days” value was “approx. 50%” and the “protection from tumor outgrowth (re-challenge, Kaplan-Meier)” value is given as “increased protection from tumor outgrowth”. For the same compound, the “type I IFN production (in words)” value in data set [3] is reported as “no IFN or only modest amounts of IFN”.
Take `Nc1nc2c(ncn2[C@@H]2O[C@@H]3COP(=O)(O)O[C@H]3[C@H]2O)c(=O)[nH]1` [c-GMP]: in data set [1], the “IL12 production (in words)” value is “do not produce IL12”. The “type I IFN production (in words)” value in data set [3] is listed as “no IFN or only modest amounts of IFN”.
Regarding `Nc1nc2c(ncn2C2OC3COP(=O)(O)OC4C(COP(=O)(O)OC3C2O)OC(n2cnc3c(=O)[nH]c(N)nc32)C4O)c(=O)[nH]1` (centres unmarked) [c-di-GMP, 3′,5′-cyclic diguanylic acid], the “IL12 production (in words)” value in data set [1] is given as “do not produce IL12”. In addition, in data set [2], the “survival rate after 60 days” value is “approx. 50%” and the “protection from tumor outgrowth (re-challenge, Kaplan-Meier)” value is “increased protection from tumor outgrowth”. The “effect on basal and GF-stimulated cancer cell proliferation” value in data set [4] is “inhibitory effect”. Further, the “type I IFN production” value in data set [3] is under 50 U/ml.
